# Reference: patent publication US20230065562A1, “DUAL CONTROLS FOR THERAPEUTIC CELL ACTIVATION OR ELIMINATION” (Bellicum Pharmaceuticals, Inc., priority 2015, published 2023)
# Residue numbers refer to the chain shown, from its start. In names and notes the source's numbering stands. Entries after “also recorded” stand apart in the source; their conditions may differ. Where a SMILES comes first, the peptide text is derived from it. Where no end group is shown, it is not given here. The star is where a group is joined. Cbz = O=C(OCc1ccccc1)*; CH2F = FC*
# B1: N405Q: modified iCasp9, N405Q (SEQ ID NO: 26) (protein)
# chain: GFGDVGALESLRGNADLAYILSMEPCGHCLIINNVNFCRESGLRTRTGSNIDCEKLRRRFSSLHFMVEVKGDLTAKKMVLALLELARQDHGALDCCVVVILSHGCQASHLQFPGAVYGTDGCPVSVEKIVNIFNGTSCPSLGGKPKLFFIQACGGEQKDHGFEVASTSPEDESPGSNPEPDATPFQEGLRTFDQLDAISSLPTPSDIFVSYSTFPGFVSWRDPKSGSWYVETLDDIFEQWAHSEDLQSLLLRVANAVSVKGIYKQMPGCFQFLRKKLFFKTS
# B2: D330A: modified iCasp9, D330A (SEQ ID NO: 24) (protein)
# chain: B1 chain with D196A, Q271N
# B3: F404Y: modified iCasp9, F404Y (protein)
# chain: VDGFGDVGALESLRGNADLAYILSMEPCGHCLIINNVNFCRESGLRTRTGSNIDCEKLRRRFSSLHFMVEVKGDLTAKKMVLALLELARQDHGALDCCVVVILSHGCQASHLQFPGAVYGTDGCPVSVEKIVNIFNGTSCPSLGGKPKLFFIQACGGEQKDHGFEVASTSPEDESPGSNPEPDATPFQEGLRTFDQLDAISSLPTPSDIFVSYSTFPGFVSWRDPKSGSWYVETLDDIFEQWAHSEDLQSLLLRVANAVSVKGIYKQMPGCYNFLRKKLFFKTSASRA
# How the values were obtained:
# [1] = target: wt FRB (K2095 T2098 W2101) (Homo sapiens, UniProt P42345+P62942); conditions: cited from earlier work
# FRB-PLF = FRB-PLF (Homo sapiens, UniProt P42345+P62942, K2095P/T2098L/W2101F); conditions: cited from earlier work
# [2] = test system: iCasp9M-transduced EBV-CTLs; test: CID-induced apoptosis / loss of GFP+ cells in iCasp9M-transduced EBV-CTLs; type: cell-based, human; conditions: 100 μM for 1 hour prior to adding CID
# Method: CID (AP20187; ARIAD Pharmaceuticals) at indicated concentrations was added to transfected 293T cells or transduced CTLs. Adherent and nonadherent cells were harvested and washed with annexin binding buffer (BD Pharmingen, San Jose, Calif.). Cells were stained with annexin-V and 7-amino-actinomycin D (7-AAD) for 15 minutes according to the manufacturer's instructions (BD Pharmingen). Within 1 hour after staining, cells were analyzed by flow cytometry using CellQuest software (Becton Dickinson).
# Inducible iCasp9M proficiency in CTLs was tested by monitoring loss of GFP-expressing cells after administration of CID; 91.3% (range, 89.5%-92.6% in 5 different donors) of GFP^+ cells were eliminated after a single 10-nM dose of CID. […] In all experiments, CTLs that survived CID treatment had low transgene expression with a 70% (range, 55%-82%) reduction in mean fluorescence intensity of GFP after CID. No further elimination of the surviving GFP^+ T cells could be obtained by an antigenic stimulation followed by a second 10-nM dose of CID. Therefore, the non-responding CTLs most likely expressed insufficient iCasp9M for functional activation by CID. To investigate the correlation between low levels of expression and CTL non-response to CID, CTLs were sorted for low, intermediate, and high expression of the linked marker gene GFP and mixed 1:1 with nontransduced CTLs from the same donor to allow for an accurate quantitation of the number of transduced T cells responding to CID-induced apoptosis.
# The number of transduced T cells eliminated increased with the level of GFP transgene expression (see FIGS. 4A, 4B and 4C). To determine the correlation between transgene expression and function of iCasp9M, iCasp9M IRES.GFP-transduced EBV-CTL were selected for low (mean 21), intermediate (mean 80) and high (mean 189) GFP expression. Selected T-cells were incubated overnight with 10 nM CID and subsequently stained with annexin V and 7-AAD. Indicated are the percentages of annexin V+/7-AAD− and annexin V+/7-AAD+ T−. Selected T-cells were mixed 1:1 with non-transduced T-cells and incubated with 10 nM CID following antigenic stimulation. Indicated is the percentage of residual GFP-positive T-cells on day 7.
# For GFPhigh-selected cells, 10 nM CID led to deletion of 99.1% (range, 98.7%-99.4%) of transduced cells. On the day of antigen stimulation, F-Casp9M.I.GFP-transduced CTLs were either untreated or treated with 10 nM CID. Seven days later, the response to CID was measured by flow cytometry for GFP. The percentage of transduced T cells was adjusted to 50% to allow for an accurate measurement of residual GFP^+ cells after CID treatment. The responses to CID in unselected (top row of and GFPhigh-selected CTLs (bottom row of was compared. The percentage of residual GFP^+ cells is indicated.
# After overnight incubation with 10 nM CID, F-Casp9M.I.GFPhigh-transduced T cells had apoptotic characteristics such as cell shrinkage and fragmentation by microscopic evaluation. […] A representative example of 3 separate experiments is shown.
# FRBL = FRBL (Homo sapiens, UniProt P42345+P62942, T2098L); test: Rapalog binding to mutant FRB (FRBL/KLW) versus wild-type FRB
# NF-κB = NF-κB SeAP reporter assay of inducible MyD88/CD40 activity; type: cell-based
# Method: 293T cells were transfected with 1 μg of reporter construct NF-κB SeAP and 4 μg of the iMC+CARζ construct pBP0774 or the MC-rap-CAR construct pBP1440 using the GeneJuice protocol (Novagen). […] After 24 hours of further incubation SeAP activity was determined from cell supernatants.
# HEK 293T cells (1.5×10^5) were seeded on a 100-mm tissue culture dish in 10 mL DMEM4500, supplemented with glutamine, penicillin/streptomycin and 10% fetal calf serum. After 16-30 hours incubation, cells were transfected using Novagen's GeneJuice® protocol. Briefly, for each transfection, 0.5 mL OptiMEM was pipetted into a 1.5-mL microcentrifuge tube and 15 μL GeneJuice reagent added followed by 5 sec. vortexing. Samples were rested 5 minutes to settle the GeneJuice suspension. DNA (5 μg total) was added to each tube and mixed by pipetting up and down four times. Samples were allowed to rest for 5 minutes for GeneJuice-DNA complex formation and the suspension added dropwise to one dish of 293T cells. A typical transfection contains 1 μg NFkB-SEAP (5), 4 μg iMC+CARζ(pBP0774) or 4 μg MC-Rap-CAR (pBP1440) (1).
# 24 hours following transfection (4.1), 293T cells were split to 96-well plates and incubated with dilutions of dimerizing drugs. Briefly, 100 μL media was added to each well of a 96-well flat-bottom plate. Drugs were diluted in tubes to a concentration 4× the top concentration in the gradient to be place on the plate. […] 100 μL from each drug-containing well was then transferred to the adjacent well and the cycle repeated 10 times to produce a serial two-fold step gradient. The last wells were untreated and serve as a control for basal reporter activity. Transfected 293 cells were then trypsinized, washed with complete media, suspended in media and 100 μL aliquoted to each well containing drug (or no drug). Cells were incubated 24 hours.
# 24 hours after drug stimulation, 96-well plates were wrapped to prevent evaporation and incubated at 65° C. for 2 hours to inactivate endogenous and serum phosphatases while the heat-stable SeAP reporter remains (3, 12, 14). 100 μL samples from each well were loaded into individual wells of a 96-well assay plate with black sides. Samples were incubated with 0.5 mM 4-methylumbelliferyl phosphate (4-MUP) in 0.5 M diethanolamine at pH 10.0 for 4 to 16 hours. Phosphatase activity was measured by fluorescence with excitation at 355 nm and emission at 460 nm. Data was transferred to a Microsoft Excel spreadsheet for tabulation and graphed with GraphPad Prism.
# [3] = test system: transduced T cells (human PBMCs); test: IL-6 ELISA as indicator of MC activity in transduced T cells; type: cell-based; conditions: pBP1440, 24 hours
# transduced T cells = test: T cell caspase assay (IncuCyte, caspase 3/7 green reagent); type: cell-based, human
# Method: To enable detection of apoptosis using the IncuCyte instrument, 2 μM of IncuCyte™ Kinetic Caspase-3/7 Apoptosis reagent (Essen Bioscience, 4440) were add to each well to reach a total volume of 200 μl. The plates were centrifuged for 5 min at 400×g and placed inside the IncuCyte (Dual Color Model 4459) to monitor green fluorescence every 2-3 hours for a total of 48 hours at 10× objective. Image analysis was performed using the “Tcells_caspreagent_phase_green_10×_MLD” processing definition. The “Total Green Object Integrated Intensity” metric is used to quantify caspase activation. Each condition was performed in duplicates and each well was imaged at 4 different locations.
# To enable detection of apoptosis using the IncuCyte instrument, 2 μM of IncuCyte™ Kinetic Caspase-3/7 Apoptosis reagent (Essen Bioscience, 4440) was added to each well to reach a total volume of 200 μl. The plates were centrifuged for 5 min at 400×g and placed inside the IncuCyte (Dual Color Model 4459) to monitor green fluorescence every 2-3 hours for a total of 48 hours at 10× objective. Image analysis was performed using the “Tcells_caspreagent_phase_green_10×_MLD” processing definition. The “Total Green Object Integrated Intensity” metric and the “Phase Object Confluence (Percent)” were used to quantify caspase activation. Each condition was performed in duplicate and each well was imaged at 4 different locations.
# HPAC PSCA+ tumor cells = test: T cell anti-tumor assay with HPAC-RFP cells (IncuCyte, ELISA); type: cell-based, human; conditions: 2 nM, E:T 1:30
# Method: PBMCs from donor 920 were activated and co-transduced with GFP-Ffluc and iMC+CARζ-T (189), i9+CARζ+MC (873), or FwtFRBC9/MC.FvFv (1308)-encoding vectors. […] (A & B) Two days post-seeding, culture supernatants were analyzed for IL-2, IL-6, and IFN-γ production by ELISA. […] Numbers of HPAC-RFP and T cell-GFP at the E:T 1:2 ratio was analyzed using the basic analyzer software for the IncuCyte at day 7 (Ci) and day 8 with 0 nM suicide drug (Cii) and 10 nM suicide drug (Ciii). Similar analysis was also performed at the 1:5 E:T ratio (D). (Note: the y-axis in Ci and Di are at log-scale).
# The HPAC PSCA^+ tumor cells were stably labeled with nuclear-localized RFP protein using the NucLight™ Red Lentivirus Reagent (Essen Bioscience, 4625). To set up the coculture, 4000 HPAC-RFP cells were seeded per well of 96-well plates in 100 μl of CTL medium without IL-2 for at least 4 hours to allow tumor cells to adhere. After transduction with the appropriate retrovirus and allowed to rest for at least 7 days in culture, T were seeded according to various E:T ratios to the HPAC-RFP-containing 96-well plates. […] Each plate was set up in duplicates, one plate to monitor with the IncuCyte cell imaging system and one plate for supernatant collection for ELISA assay on day 2. The plates were centrifuged for 5 min at 400×g and placed inside the IncuCyte (Essen Bioscience, Dual Color Model 4459) to monitor red fluorescence (and green fluorescence if T cells were labeled with GFP-Ffluc) every 2-3 hours for a total of 7 days at 10× objective. Image analysis was performed using the “HPAC-RFP_TcellsGFP_10×_MLD” processing definition. On day 7, HPAC-RFP cells were analyzed using the “Red Object Count (1/well)” metric. […] On day 8, Tcell-GFP cells were analyzed using the “Total Green Object Integrated Intensity” metric. Each condition was performed at least in duplicates and each well was imaged at 4 different locations.
# Raji-GFP cells = test: Raji-GFP coculture with CD19 CAR-T cells (flow cytometry); type: cell-based, human; conditions: 2 nM, E:T 1:5, seven days
# Method: After seven days of incubation the live cells were analyzed for the proportion of GFP labeled tumor cells (left) and for the proportion of total T cells (CD3^+, right) and transduced CAR-T cells (CD34, not shown).
# Raji cells (ATCC) labeled by stable expression of Green Fluorescent Protein (Raji-GFP) are a Burkitt's lymphoma cell line that express CD19 on the cell surface and are a target for an anti-CD19 CAR. 50000 Raji-GFP cells were seeded on a 24 well plate with 10000 CAR-T cells, a 1:5 E:T ratio. Media supernatant was taken at 48 hours for determination of cytokine release by activated CAR-T cells. The degree of tumor killing was determined at 7 days and 14 days by flow cytometry (Galeos, Beckman-Coulter) by the proportion of GFP labeled tumor cells and CD3 labeled T cells.
# FRB-KTF = FRB-KTF (Homo sapiens, UniProt P42345+P62942, W2101F); conditions: cited from earlier work
# HEK293T/16 cells = test: Secreted alkaline phosphatase (SEAP)-based surrogate killing assay of iCasp9 mutants; type: cell-based, human; conditions: for basal activity: relative SEAP activity Units: no AP1903; for Basal Activity (relative to wild type/unmodified Caspase-9): SEAP assay without AP1903
# primary T cells = test: AP1903-dependent cytotoxicity in primary T cells transduced with iCasp9 variants; type: cell-based, human; conditions: for killing of target T cells within 10 days: AP1903 at day 0 and day 4; for sensitivity to AP1903 in primary T cells: mostly single copy, 24-hour assay
# Method: The effects of various caspase polypeptides at mostly single copy in primary T cells was assayed. This may reflect more accurately how these suicide genes will be used therapeutically.
# Primary T cells from healthy donors (n=6) were transduced with retrovirus encoding mutant or wild-type iCasp9 or iCasp9-D330A, and the ΔCD19 cell surface marker. Following transduction, iCasp9-transduced T cells were purified using CD19-microbeads and a magnetic column.
# Sequence of wt FRB (K2095 T2098 W2101) (P42345 2012-2144 limits assumed): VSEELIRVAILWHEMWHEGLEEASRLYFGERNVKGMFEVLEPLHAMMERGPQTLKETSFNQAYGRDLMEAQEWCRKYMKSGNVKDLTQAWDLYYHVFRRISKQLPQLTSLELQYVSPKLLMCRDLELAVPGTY
# Sequence of wt FRB (K2095 T2098 W2101) (P62942 2-108 limits assumed): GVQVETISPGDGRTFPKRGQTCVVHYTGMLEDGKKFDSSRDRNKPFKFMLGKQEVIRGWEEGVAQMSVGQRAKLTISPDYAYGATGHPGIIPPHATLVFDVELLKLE
# Sequence of FRBL (P42345 2012-2144 T2098L limits assumed): as the sequence (P42345 2012-2144 limits assumed) above, with T87L counted along it
# Sequence of FRBL (P62942 2-108 limits assumed): as the sequence (P62942 2-108 limits assumed) above
# Sequence of FRB-PLF (P42345 2012-2144 K2095P/T2098L/W2101F): as the sequence (P42345 2012-2144 limits assumed) above, with K84P, T87L, W90F counted along it
# Sequence of FRB-PLF (P62942 2-108): as the sequence (P62942 2-108 limits assumed) above
# Sequence of FRB-KTF (P42345 2012-2144 W2101F limits assumed): as the sequence (P42345 2012-2144 limits assumed) above, with W90F counted along it
# Sequence of FRB-KTF (P62942 2-108 limits assumed): as the sequence (P62942 2-108 limits assumed) above
molecule,measurement,setting,value
CO[C@@H]1C[C@H](C[C@@H](C)[C@@H]2CC(=O)[C@H](C)/C=C(\C)[C@@H](O)[C@@H](OC)C(=O)[C@H](C)C[C@H](C)/C=C/C=C/C=C(\C)[C@H](OC(C)C)C[C@@H]3CC[C@@H](C)[C@@](O)(O3)C(=O)C(=O)N3CCCC[C@H]3C(=O)O2)CC[C@H]1O [R-Isopropoxyrapamycin],EC50,[1],~300 nM
same,EC50,FRB-PLF,~8.5 nM
COC(=O)C[C@H](NC(=O)[C@H](C)NC(=O)[C@@H](NC(=O)OCc1ccccc1)C(C)C)C(=O)CF [zVAD-fmk] (Cbz-Val-Ala-Asp(OMe)-CH2F),effect on CID-induced apoptosis,[2],inhibited
C7-isobutyloxyrapamycin,affinity for mutant FRB domain KLW,FRBL,subnanomolar affinity
same,binds FRBL at concentrations lower than wild-type FRB in mTOR,FRBL,20 fold
same,EC50 / concentration stimulating NF-κB reporter activity via MC-Rap,NF-κB; MC-rap-CAR construct pBP1440,subnanomolar
same,EC50,"NF-κB; iRMC (KLW, wild-type FKBP12, MyD88, CD40), read-out: EC50, NF-κB activity via iRMC",< 1 nM
same,MC activity (secreted IL-6) in MC-rap-T cells,[3],strongly responsive
same,activation of apoptosis at high concentrations,transduced T cells; over 100 fold above the level used to activate MC-rap,insufficient to activate apoptosis
same,tumor cell control by MC-rap containing CAR-T cells,HPAC PSCA+ tumor cells,able to control tumor cells as effectively as rimiducid stimulated iMC
same,CAR-T cells with FwtFRBC9/MC.FvFv,Raji-GFP cells,cause cell death
Q-LEHD-OPh (QLEHD-OPh),level not toxic to the T cells,transduced T cells,> 100 µM
same,concentration efficiently inhibiting caspase-9 activation by iC9 and iRC9,transduced T cells; 20 nM of the respective activating ligands,≤ 4 µM
S-Butanesulfonamidorap [S-Butanesulfonamidorap (AP23050)],EC50,[1],~2.7 nM
same,EC50,FRB-KTF,> 200 nM
B1,basal activity: relative SEAP activity Units,HEK293T/16 cells; 1 μg iCasp9 per million cells,179081 Units
same,basal activity: relative SEAP activity Units,HEK293T/16 cells; 2 μg iCasp9 per million cells,175529 Units
same,Basal Activity (relative to wild type/unmodified Caspase-9),HEK293T/16 cells,lower basal signaling; also recorded: lowered basal activity; also recorded: consistently lower basal activity; also recorded: lower basal activity than D330A; also recorded: very low basal activity; also recorded: Decreased
same,killing of target T cells within 10 days,primary T cells,indistinguishable from wild type
same,sensitivity to AP1903 in primary T cells,primary T cells,less sensitive to AP1903
B2,basal activity: relative SEAP activity Units,HEK293T/16 cells; 1 μg iCasp9 per million cells,148928 Units
same,basal activity: relative SEAP activity Units,HEK293T/16 cells; 2 μg iCasp9 per million cells,136863 Units
same,Basal Activity (relative to wild type/unmodified Caspase-9),HEK293T/16 cells,lowered basal signaling; also recorded: lowered basal activity; also recorded: less basal activity than wild type Caspase-9; also recorded: Decreased
same,IC50 of AP1903 in transduced T cells versus wild-type iCasp9,"primary T cells; AP1903 0-100 nM, 24 hours, 6 donors",significantly lower
same,sensitivity to AP1903 in primary T cells,primary T cells,more sensitive to AP1903 at low titers; also recorded: more sensitive to AP1903 than the wild type
B3,Basal Activity (relative to wild type/unmodified Caspase-9),HEK293T/16 cells,lowered basal activity; also recorded: Decreased
same,killing of target T cells within 10 days,primary T cells,indistinguishable from wild type
